From PubChem BioAssay (NCI)
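48-hour exposure; five concentrations; linearly interpolated endpoints. At the GI50, growth is halved. TGI denotes the concentration required for complete inhibition of growth.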

Legend:
Test in all cases: inhibition of tumour cell growth, NCI panel, 48 h
[1] = test system: MDA-MB-231 breast
[2] = test system: MDA-N
[3] = test system: CCRF-CEM leukemia
[4] = test system: OVCAR-4 ovarian
[5] = test system: HS 578T breast
[6] = test system: MDA-MB-435
[7] = test system: HCT-116 colon
[8] = test system: SK-OV-3 ovarian
[9] = test system: U251 CNS
[10] = test system: SK-MEL-28 melanoma
[11] = test system: UACC-62 melanoma

| Compound | TGI [1] | TGI [2] | TGI [3] | TGI [4] | TGI [5] | TGI [6] | TGI [7] | TGI [8] | TGI [9] | TGI [10] | TGI [11] | GI50 [3] | GI50 [4] | GI50 [1] | GI50 [5] | GI50 [6] | GI50 [7] | GI50 [9] | GI50 [10] | GI50 [11] |
| --- | --- | --- | --- | --- | --- | --- | --- | --- | --- | --- | --- | --- | --- | --- | --- | --- | --- | --- | --- | --- |
| COc1ccc(-c2cc(-c3ccc(O)cc3O)c(C#N)c(=O)[nH]2)cc1 | 36.8 µM | 32.7 µM | 56.7 µM | 60 µM | 48.1 µM | 36.4 µM | 38.7 µM | 33.8 µM | 41 µM | 33.5 µM | 36.2 µM |  |  |  |  |  |  |  |  |  |
| Cn1ccc(C(=O)NCCN(CCNC(=O)c2ccn(C)c(=O)c2O)CCNC(=O)c2ccn(C)c(=O)c2O)c(O)c1=O | > 100 µM | > 100 µM | > 100 µM | > 100 µM | > 100 µM | > 100 µM |  | > 100 µM | > 100 µM | > 100 µM | > 100 µM |  |  |  |  |  |  |  |  |  |
| Cc1[nH]c(=O)[nH]c(=O)c1/C=C/C(=O)NC(CO)CS(=O)Cc1ccccc1 (stereo not drawn) |  |  | > 300 µM |  |  |  | > 300 µM | > 300 µM | > 300 µM | > 300 µM | > 300 µM |  |  |  |  |  |  |  |  |  |
| COc1cc(/C=N\c2nc(-c3ccc(NS(=O)(=O)c4ccc(Cl)c(OC)c4)cc3)cs2)ccc1O |  | > 100 µM | > 100 µM | > 100 µM | > 100 µM | > 100 µM | > 100 µM | > 100 µM |  | > 100 µM | 36.5 µM |  |  |  |  |  |  |  |  |  |
| NNC(=O)CCSc1ccccc1 | > 100 µM | > 100 µM | > 100 µM | > 100 µM | > 100 µM | > 100 µM | > 100 µM | > 100 µM | > 100 µM | > 100 µM | > 100 µM |  |  |  |  |  |  |  |  |  |
| CN(C)CCCSc1nc2c(c(=N)n1-c1ccccc1)c(=S)n(-c1ccccc1)c(=S)n2-c1ccccc1 | 3.03 µM | 3.18 µM | 2.41 µM | 3.42 µM | > 100 µM | 3.09 µM | 3.46 µM | 6.86 µM | 3.19 µM | 3.88 µM | 3.23 µM |  |  |  |  |  |  |  |  |  |
| CCOC(=O)C(Cc1cn(C(C)=O)c2ccccc12)P(=O)(OCC)OCC (stereo not drawn) | > 100 µM | > 100 µM |  | > 100 µM | > 100 µM |  | > 100 µM | > 100 µM | > 100 µM | > 100 µM |  |  |  |  |  |  |  |  |  |  |
| c1ccc(C(NC2=NCCO2)c2ccccc2)cc1 | > 10 µM | > 10 µM | > 10 µM | > 10 µM | > 10 µM | > 10 µM | > 10 µM | > 10 µM | > 10 µM | > 10 µM | > 10 µM |  |  |  |  |  |  |  |  |  |
| Cn1ncc2c(Nc3cccc(Cl)c3)nc(Nc3cccc(Cl)c3)nc21 | > 68.3 µM |  | 2.89 µM | 47.6 µM | 43.9 µM | > 57.6 µM | > 58.3 µM | 54 µM | 52.1 µM | 41.2 µM | 38.5 µM |  |  |  |  |  |  |  |  |  |
| COc1ccc(C(O)(c2ccccc2)c2nccc3ccccc23)cc1 (stereo not drawn) | > 100 µM | > 100 µM | 8.98 µM | > 100 µM | > 100 µM | > 100 µM | > 100 µM | > 100 µM | > 100 µM | > 100 µM | > 100 µM |  |  |  |  |  |  |  |  |  |
| O=C(O)CCc1nc2ccccc2[nH]1 | > 100 µM | > 100 µM | > 100 µM | > 100 µM | > 100 µM | > 100 µM | > 100 µM | > 100 µM | > 100 µM | > 100 µM | > 100 µM |  |  |  |  |  |  |  |  |  |
| C/C(=N\NC(=S)N(C)C)c1nc2ncccc2[nH]1 | > 100 µM | > 100 µM |  | 10.6 µM | 7.85 µM | > 100 µM | > 100 µM | 5.53 µM | > 100 µM | > 100 µM | 2.7 µM |  |  |  |  |  |  |  |  |  |
| COc1cc2cc(C(=O)Nc3cc4n(n3)-c3ccccc3C4)[nH]c2c(OC)c1OC | 19.3 µM | 8.52 µM | 3.42 µM | 6.16 µM | 16.4 µM | 5.28 µM | 9.65 µM | 19.4 µM | 22.7 µM | 9.66 µM |  |  |  |  |  |  |  |  |  |  |
| O=[N+]([O-])c1ccc(Oc2c(Cl)cc(S(=O)(=O)/N=C(\NO)Nc3ccc(Cl)cc3)cc2Cl)c(Cl)c1 | 36.7 µM | 28.9 µM | 98.4 µM | 25.9 µM | 36 µM | 31.3 µM | 26.2 µM |  | 30.8 µM | 47.6 µM | 27.5 µM |  |  |  |  |  |  |  |  |  |
| O=c1/c(=C/c2ccc([N+](=O)[O-])o2)sc2n1[C@@H](c1ccc(Cl)cc1)C=C(c1cc(F)c(Cl)cc1Cl)N=2 | 18.5 µM | 23.3 µM | > 100 µM | 30.8 µM | > 100 µM | 36.2 µM | 18.3 µM | 50.8 µM | 21.7 µM | > 100 µM | 29.2 µM |  |  |  |  |  |  |  |  |  |
| CCOC(=O)CCSc1nc2ccc(I)cc2c(=O)n1Cc1ccccc1 | > 100 µM | > 86.7 µM | 67.4 µM | > 77.1 µM | > 81.9 µM | > 89 µM | > 74.2 µM | > 100 µM | > 100 µM | > 100 µM | > 93.5 µM |  |  |  |  |  |  |  |  |  |
| OCCCNc1ncnc2[nH]ncc12 | > 100 µM | > 100 µM | > 100 µM | > 100 µM | > 100 µM | > 100 µM | > 100 µM | > 100 µM | > 100 µM | > 100 µM | > 100 µM |  |  |  |  |  |  |  |  |  |
| CC(Oc1ccccc1Cl)C(=O)NN1C(=O)CC(=O)NC1=S (stereo not drawn) | > 100 µM | > 100 µM |  | > 100 µM | > 100 µM | > 100 µM | > 100 µM | > 100 µM | > 100 µM | > 100 µM | > 100 µM |  |  |  |  |  |  |  |  |  |
| COc1cc2c(cc1OCCCOS(C)(=O)=O)N=C[C@@H]1CCCN1C2=O | > 100 µM |  | > 100 µM | > 100 µM | > 100 µM | > 100 µM | > 100 µM | > 100 µM | > 100 µM | > 100 µM | > 100 µM | 52.8 µM | 70.4 µM |  |  |  |  |  |  |  |
| O=C(Nc1ccc(-n2cc(-c3ccncc3)c(-c3ccc(O)c(Cl)c3)n2)cc1)Nc1ccc(Cl)c(C(F)(F)F)c1 | 12.5 µM |  | 22.3 µM | 29.9 µM | 13 µM | 15.3 µM | 10.8 µM |  | 10.1 µM | 15 µM | 14.8 µM | 3.2 µM | 3.97 µM | 3.2 µM | 2.43 µM | 2.89 µM | 3.15 µM | 2.53 µM | 3.64 µM | 3.9 µM |
| O=C(O)c1cc(=O)c2c(OCC(O)COc3cccc4oc(C(=O)O)cc(=O)c34)cccc2o1 | > 100 µM | > 100 µM | > 100 µM | > 100 µM | > 100 µM | > 100 µM | > 100 µM | > 100 µM | > 100 µM | > 100 µM | > 100 µM |  |  |  |  |  |  |  |  |  |
| NC(=O)c1cccc(N=c2oc3ccc(Br)cc3cc2-c2nc3ccccc3[nH]2)c1 | 25 µM | 38.1 µM | 17.3 µM | 47.5 µM | 74.5 µM | 39.4 µM | 33.3 µM | 32.7 µM | 31 µM | > 100 µM | 28.5 µM |  |  |  |  |  |  |  |  |  |
| CC(=O)O[C@@H]1C(=O)N(c2ccccc2)[C@@H]1c1cc2ccccc2c2ccccc12 | 75.1 µM | > 100 µM | > 100 µM | 78.5 µM | > 100 µM | 48.1 µM | 91 µM | > 100 µM | > 100 µM | > 100 µM | > 100 µM |  |  |  |  |  |  |  |  |  |
| CC(C)CC(=O)NC(C(=O)NC(C(=O)NC(CC(C)C)C(O)CC(=O)NC(C)C(=O)NC(CC(C)C)C(O)CC(=O)O)C(C)C)C(C)C (stereo not drawn) | > 100 µM | > 100 µM | > 100 µM | > 100 µM |  | > 100 µM | > 100 µM | > 100 µM | > 100 µM | > 100 µM | > 100 µM |  |  |  |  |  |  |  |  |  |
| Cc1c2c(OCC(O)CN3CCN(c4ccccc4)CC3)nn(C)c(=O)c2c(C)n1-c1ccccc1 (stereo not drawn) | 69.6 µM | 35.4 µM | > 100 µM | > 100 µM | 65.9 µM | 91.8 µM | 31.3 µM | > 100 µM | 30.2 µM | 40.2 µM | 32 µM |  |  |  |  |  |  |  |  |  |
| Nc1ccc(Oc2ccc(C3(c4ccc(Oc5ccc(N)cc5)cc4)C4CC5CC(C4)CC3C5)cc2)cc1 | 37.6 µM | 40.4 µM | 35.8 µM | > 74 µM | > 100 µM | 35.6 µM | 13.7 µM |  | 21.5 µM | > 77.9 µM | 49.1 µM |  |  |  |  |  |  |  |  |  |
| C#C/C=C\CCCCCCCCCCCCCC/C=C\CCCCC#CC(O)C#CCCCC/C=C\CCCCCC/C=C/C(O)C#C (stereo not drawn) | > 75 µM | 24.2 µM | > 47.5 µM | 26.4 µM | > 75 µM | 17.2 µM | > 32.8 µM | > 75 µM | > 75 µM | > 72 µM | 36.8 µM |  |  |  |  |  |  |  |  |  |
| CC(C)C(=O)CC(c1ccc(Cl)cc1)N1N=C(C(C)C)CC1c1ccc(Cl)cc1 (stereo not drawn) |  |  | > 69.8 µM |  |  |  | > 100 µM |  | > 100 µM | > 100 µM | > 100 µM |  |  |  |  |  |  | 53.3 µM |  |  |
| C/C(=N\NC(=S)NCCCCNC(=S)N/N=C(\C)c1ccccn1)c1ccccc1 | > 52.7 µM | > 100 µM |  | > 54.2 µM | > 100 µM | > 100 µM | 81.5 µM | 38.9 µM | 15.6 µM | > 100 µM | 7.03 µM |  |  |  |  |  |  |  |  |  |
| C=CCN1C[C@H](C)N([C@@H](c2ccc(C(=O)N3CCCCC3)cc2)c2cccc(OC)c2)C[C@H]1C | > 100 µM | > 100 µM | 70.4 µM | > 100 µM | > 100 µM | > 100 µM | > 100 µM | > 100 µM | > 100 µM |  | 64.8 µM |  |  |  |  |  |  |  |  |  |
